pEC50: −log10 of the molar value.
Key:
FPR2 [1] = target: T1, FPR2 (Homo sapiens, UniProt P25090); assay: PathHunter β-arrestin recruitment in CHO-K1 FPR2 cells; assay type: cell-based
T1 sequence (P25090 1-351): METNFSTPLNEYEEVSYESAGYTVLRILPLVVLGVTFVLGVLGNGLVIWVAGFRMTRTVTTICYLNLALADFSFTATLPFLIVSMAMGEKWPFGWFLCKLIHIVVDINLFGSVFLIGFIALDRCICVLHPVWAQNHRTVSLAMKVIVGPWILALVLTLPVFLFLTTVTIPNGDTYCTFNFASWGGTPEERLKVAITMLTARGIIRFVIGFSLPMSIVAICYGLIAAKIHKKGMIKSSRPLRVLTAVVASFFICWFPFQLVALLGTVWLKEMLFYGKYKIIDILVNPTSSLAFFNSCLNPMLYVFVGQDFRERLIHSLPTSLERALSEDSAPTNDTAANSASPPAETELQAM

human neutrophils = assay: Ca2+ mobilization in human neutrophils; assay type: cell-based; settings: % of response induced by 5 nM fMLF
FPR1 [2] = target: T2, FPR1 (Homo sapiens, UniProt P21462); assay: Ca2+ mobilization in HL-60 cells transfected with FPR1; assay type: cell-based; settings: HL-60-FPR1 cells; % of response induced by 5 nM fMLF
T2 sequence (P21462 1-350): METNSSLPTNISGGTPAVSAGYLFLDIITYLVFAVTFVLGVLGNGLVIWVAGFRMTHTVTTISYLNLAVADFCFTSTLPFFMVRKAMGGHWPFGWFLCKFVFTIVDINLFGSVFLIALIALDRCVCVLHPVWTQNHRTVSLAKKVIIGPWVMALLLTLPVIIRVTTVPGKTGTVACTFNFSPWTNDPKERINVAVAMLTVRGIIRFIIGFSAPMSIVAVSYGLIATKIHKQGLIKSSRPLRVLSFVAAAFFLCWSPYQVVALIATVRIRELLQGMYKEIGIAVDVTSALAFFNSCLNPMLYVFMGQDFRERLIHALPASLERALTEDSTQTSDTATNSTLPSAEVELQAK

FPR2 [3] = target: T1, FPR2; assay: Ca2+ mobilization in HL-60 cells transfected with FPR2; assay type: cell-based; settings: HL-60-FPR2 cells; % of response induced by 5 nM WKYMVm
FPR1 [4] = target: T2, FPR1; assay: PathHunter β-arrestin recruitment in CHO-K1 FPR1 cells; assay type: cell-based; settings: % of response induced by 5 nM WKYMVm
FPR2/ALX = settings: read-out: EC50 at FPR2/ALX; endogenous ligand; cited from earlier work

| SMILES | Ca2+ mobilization hPMN efficacy (human neutrophils) | Ca2+ mobilization FPR1 efficacy (FPR1 [2]) | Ca2+ mobilization FPR2 efficacy (FPR2 [3]) | further results |
| --- | --- | --- | --- | --- |
| CSCC[C@H](NC=O)C(=O)N[C@@H](CC(C)C)C(=O)N[C@@H](Cc1ccccc1)C(=O)O [fMLF, N-formyl-methionine-leucine-phenylalanine, reference compound] |  |  |  | β-Arrestin recruitment FPR2 (in words) (FPR2 [1]; FPR2 CHO-K1 cells): no recruitment |
| CCC[C@H](C(=O)Nc1ccc(Br)cc1)n1nc(C)cc(Cc2cccc(OC)c2)c1=O [R-(−)-5c, R-(−)-N-(4-Bromophenyl)-2-[5-(3-methoxybenzyl)-3-methyl-6-oxopyridazin-1(6H)-yl]pentanamide] | 145% | 85% | 120% | β-Arrestin recruitment FPR1 efficacy (FPR1 [4]): 120%; β-Arrestin recruitment FPR2 efficacy (FPR2 [1]; CHO-K1 FPR2 cells, % of response induced by 5 nM WKYMVm): 100% |
| CCCCC[C@H](O)/C=C/C=C\C=C\C=C\[C@@H](O)[C@@H](O)CCCC(=O)O [LXA4, lipoxin A4] |  |  |  | pEC50 (FPR2/ALX): 9.00 |
| CCC(C(=O)Nc1ccc(Br)cc1)n1nc(C)cc(Cc2cccc(OC)c2)c1=O (racemic) [(±)-5b, (±)-N-(4-Bromophenyl)-2-[5-(3-methoxybenzyl)-3-methyl-6-oxopyridazin-1(6H)-yl]butanamide] | 145% | 95% | 95% |  |
| COc1cccc(Cc2cc(C)nn([C@H](C)C(=O)Nc3ccc(Br)cc3)c2=O)c1 [R-(−)-5a, R-(−)-N-(4-Bromophenyl)-2-[5-(3-methoxybenzyl)-3-methyl-6-oxopyridazin-1(6H)-yl]propanamide] | 110% |  |  |  |
| COc1cccc(Cc2cc(C)nn([C@@H](C)C(=O)Nc3ccc(Br)cc3)c2=O)c1 [S-(+)-5a, S-(+)-N-(4-Bromophenyl)-2-[5-(3-methoxybenzyl)-3-methyl-6-oxopyridazin-1(6H)-yl]propanamide] | 65% |  |  |  |
